From ChEMBL document CHEMBL1201862, “PubChem BioAssay data set” (2004)
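Grown in 96-well plates, cells were treated for 48 hours with each compound at five concentrations. Insufficient inhibition: endpoint recorded as highest concentration tested. GI50 marks 50% less growth.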 Calls of active or inactive are those of the source. No stated cut-off is given here; in the data, active = GI50 up to about 1.1 µM and inactive = higher.

What was measured:
Assay in all cases: NCI-60 cell line screen, 48 h
786-0 = test system: 786-0
A549 = test system: A549
BT-549 = test system: BT-549
CAKI-1 = test system: CAKI-1
CCRF-CEM = test system: CCRF-CEM
COLO 205 = test system: COLO 205
DU-145 = test system: DU-145
EKVX = test system: EKVX
HCT-116 = test system: HCT-116
HCT-15 = test system: HCT-15
HL-60 = test system: HL-60
HOP-62 = test system: HOP-62
HOP-92 = test system: HOP-92
HT-29 = test system: HT-29
Hs-578T = test system: Hs-578T
IGROV-1 = test system: IGROV-1
K562 = test system: K562
KM12 = test system: KM12
LOX IMVI = test system: LOX IMVI
M14 = test system: M14
MCF7 = test system: MCF7
MDA-MB-231 = test system: MDA-MB-231
MDA-MB-435 = test system: MDA-MB-435
MOLT-4 = test system: MOLT-4
Malme-3M = test system: Malme-3M
NCI-H226 = test system: NCI-H226
NCI-H23 = test system: NCI-H23
NCI-H460 = test system: NCI-H460
NCI-H522 = test system: NCI-H522
NCI/ADR-RES = test system: NCI/ADR-RES
OVCAR-3 = test system: OVCAR-3
OVCAR-4 = test system: OVCAR-4
OVCAR-5 = test system: OVCAR-5
OVCAR-8 = test system: OVCAR-8
PC-3 = test system: PC-3
RPMI-8226 = test system: RPMI-8226
SF-268 = test system: SF-268
SF-295 = test system: SF-295
SK-MEL-28 = test system: SK-MEL-28
SK-MEL-2 = test system: SK-MEL-2
SK-MEL-5 = test system: SK-MEL-5
SN12C = test system: SN12C
SNB-19 = test system: SNB-19
SW-620 = test system: SW-620
T47D = test system: T47D
TK-10 = test system: TK-10
U-251 = test system: U-251
UACC-257 = test system: UACC-257
UACC-62 = test system: UACC-62
UO-31 = test system: UO-31

Measured: GI50

CC(C)=NN/C(=N\c1ccc(Cl)cc1)NS(=O)(=O)c1cc2ccccc2s1
inactive: 786-0 > 100 µM | A549 44 µM | BT-549 41.9 µM | CAKI-1 97.9 µM | CCRF-CEM 40.4 µM | COLO 205 46.5 µM | DU-145 > 100 µM | EKVX 12 µM | HCT-116 40.4 µM | HL-60 29.2 µM | HOP-62 > 100 µM | HOP-92 38.9 µM | HT-29 63.1 µM | Hs-578T > 100 µM | IGROV-1 34.2 µM | K562 23 µM | KM12 90.4 µM | LOX IMVI 77.3 µM | M14 56.5 µM | MCF7 53 µM | MDA-MB-231 > 100 µM | MDA-MB-435 36.7 µM | MOLT-4 16.6 µM | Malme-3M 89.9 µM | NCI-H226 > 100 µM | NCI-H23 76 µM | NCI-H460 > 100 µM | NCI-H522 38.5 µM | NCI/ADR-RES 51.1 µM | OVCAR-3 57 µM | OVCAR-4 46.9 µM | OVCAR-5 32.7 µM | OVCAR-8 > 100 µM | PC-3 45.7 µM | RPMI-8226 29 µM | SF-268 76.7 µM | SF-295 57.5 µM | SK-MEL-28 > 100 µM | SK-MEL-2 65.8 µM | SK-MEL-5 > 100 µM | SN12C 50.7 µM | SNB-19 > 100 µM | SW-620 > 100 µM | T47D 21.5 µM | TK-10 87.9 µM | U-251 > 100 µM | UACC-257 55.3 µM | UACC-62 > 100 µM | UO-31 30.5 µM
71.8 µM: HCT-15
